Key:
URAT1 [1] = target: T1, URAT1 (Homo sapiens, UniProt Q96S37); test: inhibition of [14C] uric acid uptake by oocytes injected with URAT1 cRNA
T1 sequence (Q96S37 1-553): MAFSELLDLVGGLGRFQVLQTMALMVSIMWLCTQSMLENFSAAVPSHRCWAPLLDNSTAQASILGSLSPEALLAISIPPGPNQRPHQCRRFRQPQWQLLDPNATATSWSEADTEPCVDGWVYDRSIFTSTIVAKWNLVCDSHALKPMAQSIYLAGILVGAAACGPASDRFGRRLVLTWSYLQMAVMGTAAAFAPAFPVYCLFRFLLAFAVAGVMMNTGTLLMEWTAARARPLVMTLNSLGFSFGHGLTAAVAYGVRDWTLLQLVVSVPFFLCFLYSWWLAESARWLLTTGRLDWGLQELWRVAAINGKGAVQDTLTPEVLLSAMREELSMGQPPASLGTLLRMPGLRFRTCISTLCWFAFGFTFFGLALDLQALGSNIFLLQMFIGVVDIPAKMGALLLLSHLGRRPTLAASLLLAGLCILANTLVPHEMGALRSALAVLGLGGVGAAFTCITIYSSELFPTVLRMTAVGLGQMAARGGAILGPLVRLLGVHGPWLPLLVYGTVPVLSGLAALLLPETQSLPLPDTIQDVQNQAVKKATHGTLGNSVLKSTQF
Experimental: In order to further study substrate selectivity of URAT1, in the uptake experiment system of [^14C] uric acid by the oocytes injected with URAT1 cRNA, various substances were added to the system and their effects were examined (inhibitory experiments). […] The uptake of 50 μM [^14C] uric acid was measured under the condition at pH 7.4 in the presence and absence of various compounds (unlabeled) at the concentrations shown in FIG. 8.

URAT1 [2] = target: T1, URAT1; test: uric acid uptake by URAT1 oocytes after preincubation with or pre-injection of organic acids (exchange substrate study); assay type: cell-based; design: expressed in transfected cells; host or cells: Xenopus laevis oocytes ("platanna") injected with URAT1 cRNA; settings: for uptake of radiolabeled uric acid after precedent injection of organic acid into oocytes: 100 nl of 100 mM injected, compared to water injected, FIG. 7; for uptake of uric acid after preincubation of oocytes with organic acid: preincubation 1 mM, oocytes injected with URAT1 cRNA, FIG. 6
Experimental: Therefore, 100 nl of 100 mM non-radiolabeled L-lactic acid was precedently injected in the oocytes, and then the uptake of the radiolabeled uric acid was observed (FIG. 7).

URAT1 [3] = target: T1, URAT1; test: uptake of radiolabeled substrates by oocytes injected with URAT1 cRNA; assay type: cell-based; design: expressed in transfected cells; host or cells: Xenopus laevis oocytes ("platanna") injected with URAT1 cRNA; settings: oocytes of platanna injected with URAT1 cRNA
Experimental: Michaelis-Menten dynamic experiment in urate transport by URAT1 was carried out. Concentration dependency of uric acid in the transport by URAT1 was studied by examining change of uptake amounts of uric acid at various concentrations by URAT1. The uptake experiment of the radiolabeled uric acid was carried out using oocytes injected with URAT1 cRNA according to the method described above.

[4] = substrate: O=c1[nH]c(=O)c2[nH]c(=O)[nH]c2[nH]1; test: as above; assay type: cell-based, human; settings: other: oocytes injected with URAT1 cRNA, FIG. 3
[5] = 50 μM [14C] uric acid, pH 7.4, unlabeled compound at concentrations shown in FIG. 8

## CCCN(CCC)S(=O)(=O)c1ccc(C(=O)O)cc1 [probenecid]
URAT1 [1]; [5]
  inhibition of transport/uptake of [14C] uric acid by URAT1: significantly inhibited

## C[C@H](O)C(=O)O [L-lactic acid]
URAT1 [2]
  uptake of radiolabeled uric acid after precedent injection of organic acid into oocytes: significantly high uptake
URAT1 [1]; [5]
  inhibition of transport/uptake of [14C] uric acid by URAT1: significantly inhibited

## C[C@@H](O)C(=O)O [D-lactic acid]
URAT1 [1]; [5]
  inhibition of transport/uptake of [14C] uric acid by URAT1: significantly inhibited

## CC[N+](CC)(CC)CC [TEA, tetraethylammonium]
URAT1 [3]
  uptake of 14C-labeled substrate by oocytes expressing URAT1: No uptake
URAT1 [1]; [5]
  inhibition of transport/uptake of [14C] uric acid by URAT1: did not show any inhibitory action

## CC(O)C(=O)O (stereo not shown) [lactic acid]
URAT1 [2]
  uptake of uric acid after preincubation of oocytes with organic acid: not facilitated

## O=C(O)c1cccnc1 [nicotinic acid, 3-pyridine carboxylic acid]
URAT1 [2]
  uptake of uric acid after preincubation of oocytes with organic acid: significantly increased
URAT1 [1]; [5]
  inhibition of transport/uptake of [14C] uric acid by URAT1: significantly inhibited

## CCc1oc2ccccc2c1C(=O)c1cc(Br)c(O)c(Br)c1 [benz-bromarone]
URAT1 [1]; pH 7.4
  inhibition of transport/uptake of [14C] uric acid by URAT1: significantly inhibited

## Pyrazine dicarboxylic acid
URAT1 [1]; [5]
  inhibition of transport/uptake of [14C] uric acid by URAT1: slightly weak inhibitory effect

## O=C1C(CC[S+]([O-])c2ccccc2)C(=O)N(c2ccccc2)N1c1ccccc1 (stereo not shown) [sulfinpyrazon]
URAT1 [1]; [5]
  inhibition of transport/uptake of [14C] uric acid by URAT1: significantly inhibited

## O=c1[nH]c(=O)c2[nH]c(=O)[nH]c2[nH]1 [uric acid]
URAT1 [3]
  uptake of 14C-labeled substrate by oocytes expressing URAT1: showed uptake

## O=C(O)c1cnccn1 [pyrazine carboxylic acid]
URAT1 [2]
  uptake of uric acid after preincubation of oocytes with organic acid: significantly increased
URAT1 [1]; [5]
  inhibition of transport/uptake of [14C] uric acid by URAT1: significantly inhibited

## Nc1ccc(C(=O)NCC(=O)O)cc1 [PAH, para-amino hippuric acid]
URAT1 [2]
  uptake of radiolabeled uric acid after precedent injection of organic acid into oocytes: no change
  uptake of uric acid after preincubation of oocytes with organic acid: not facilitated
URAT1 [3]
  uptake of 14C-labeled substrate by oocytes expressing URAT1: No uptake
URAT1 [1]; [5]
  inhibition of transport/uptake of [14C] uric acid by URAT1: did not show any inhibitory action

## CCCCc1nc(Cl)c(CO)n1Cc1ccc(-c2ccccc2-c2nn[nH]n2)cc1 [Losartan]
URAT1 [1]
  IC50: ~20 µM
URAT1 [1]; [5]
  inhibition of transport/uptake of [14C] uric acid by URAT1: significantly inhibited

B1: URAT1 (Homo sapiens) (protein)
chain: T1 sequence (Q96S37 1-553)
notes: expressed in transfected cells; host or cells: Xenopus laevis oocytes ("platanna") injected with URAT1 cRNA
[4]
  Km: 372 ± 25 µM

— patent US7510847B2, “Kidney-specific urate transporter and gene thereof” (Human Cell Systems, Inc., priority 2001, dated 2009)
